Paper PMC9706280 (Journal of Pesticide Science, 2022)

Target: succinate dehydrogenase (SDH) (Botrytis cinerea, UniProt A0A384J5E4+A0A384J8V8+A0A384JHJ5)
Assay: SDH assay kit on B. cinerea mitochondrial suspension, absorbance at […] nm
Assay type: biochemical
Settings: read-out: IC50 / μM

Chain of succinate dehydrogenase (SDH) (A0A384J5E4 31-300): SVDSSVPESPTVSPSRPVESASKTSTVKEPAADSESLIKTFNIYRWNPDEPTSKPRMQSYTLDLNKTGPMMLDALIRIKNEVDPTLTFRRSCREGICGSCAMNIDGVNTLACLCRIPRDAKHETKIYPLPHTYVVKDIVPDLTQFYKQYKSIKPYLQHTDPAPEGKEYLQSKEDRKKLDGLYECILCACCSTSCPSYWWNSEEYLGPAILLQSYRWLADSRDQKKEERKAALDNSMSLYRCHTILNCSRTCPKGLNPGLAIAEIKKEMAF
Chain of succinate dehydrogenase (SDH) (A0A384J8V8 41-189): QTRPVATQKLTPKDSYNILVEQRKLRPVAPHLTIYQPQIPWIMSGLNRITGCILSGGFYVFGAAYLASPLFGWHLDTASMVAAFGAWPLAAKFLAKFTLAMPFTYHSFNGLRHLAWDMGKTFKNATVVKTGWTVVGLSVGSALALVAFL
Chain of succinate dehydrogenase (SDH) (A0A384JHJ5 55-192): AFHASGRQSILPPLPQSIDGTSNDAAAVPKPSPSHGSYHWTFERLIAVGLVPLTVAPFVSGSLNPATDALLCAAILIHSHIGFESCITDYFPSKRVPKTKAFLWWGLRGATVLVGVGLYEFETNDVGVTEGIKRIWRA
Chain of succinate dehydrogenase (SDH) (A0A384K456 41-647 partner): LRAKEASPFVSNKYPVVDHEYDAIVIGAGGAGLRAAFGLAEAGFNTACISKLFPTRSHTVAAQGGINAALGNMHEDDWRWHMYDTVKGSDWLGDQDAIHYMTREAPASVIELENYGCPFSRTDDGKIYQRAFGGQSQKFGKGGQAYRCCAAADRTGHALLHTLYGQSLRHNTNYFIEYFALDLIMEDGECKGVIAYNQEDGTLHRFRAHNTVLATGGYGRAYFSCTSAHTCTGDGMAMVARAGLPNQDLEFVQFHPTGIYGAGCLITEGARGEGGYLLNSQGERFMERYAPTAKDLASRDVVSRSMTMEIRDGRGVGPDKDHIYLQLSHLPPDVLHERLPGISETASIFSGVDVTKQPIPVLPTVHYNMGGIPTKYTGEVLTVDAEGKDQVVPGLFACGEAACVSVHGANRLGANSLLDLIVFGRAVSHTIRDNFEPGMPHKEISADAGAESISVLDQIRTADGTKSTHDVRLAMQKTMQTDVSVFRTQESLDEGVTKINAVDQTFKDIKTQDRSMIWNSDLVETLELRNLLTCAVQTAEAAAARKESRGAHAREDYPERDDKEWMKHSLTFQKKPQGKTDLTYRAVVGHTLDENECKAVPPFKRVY

Row | IC50 [µM] | Compound
1 | 17.3 | O=C(Nc1ccccc1Nc1ccccc1)c1ccc(Cl)nc1 [3f, 6-chloro-N-(2-(phenylamino)phenyl)nicotinamide]
2 | 14.4 | Cc1nc(C(F)(F)F)c(C(=O)Nc2c(Br)cc(OC(F)(F)F)cc2Br)s1 [thifluzamide]
